Data set [1] can be described thus: Diarrhoea score of weaned piglets fed supplemented feed. The following applies: 1000 ppm in feed; for Diarrhoea score: average over the total period.
Data set [2] deals with Clostridium perfringens. The data set is classed as in vivo. The following applies: 0-42 day, infected broilers, 1000 ppm in feed.
The subject of data set [3] is Clostridium perfringens. The data set is classed as cell-based.
Data set [4] relates to Clostridium perfringens. The data set is classed as in vivo, broilers. Further details: Clostridium perfringens counts in jejunum: unit not given here. As to conditions: 1000 ppm in feed; for Clostridium perfringens counts in jejunum: day 13 of age.
The nature of data set [5]: Recovery in duodenum, jejunum and ileum of broilers fed supplemented feed. The data set is classed as in vivo. As to conditions: 1000 ppm in feed, day 43 of age, FIG. 3. The source says: Broilers were offered feed supplemented with 1000 ppm of either dodecanoic acid or ethyl dodecanoate throughout the trial. At day 43 of age, 12 birds per treatment were sacrificed and the content of the duodenum, jejunum and ileum was harvested and analysed for levels of ethyl dodecanoate and dodecanoic acid. In FIG. 3 the mean levels are depicted.

Setting [6] is: Challenged broilers (10^8 CFU C. perfringens day 9-11).
Setting [7] is: Overall (challenged and non-challenged).
Setting [8] is: Example 1, FIG. 1, all tested levels, broth, 8 hours.

Structures are written as SMILES. Where two headings read alike, the source gives them in different places.

For `CCCCCCCCCCCC(=O)O` [dodecanoic acid, reference compound], the Diarrhoea score in data set [1] stood at 46.64 ab. In data set [2], the Feed conversion ratio amounted to 1.636, the Feed intake is on record as 104.3 g/day, the Mortality worked out at 8.333% and the Weight gain amounted to 63.78 g/day. In addition, the “Inhibition of growth of Clostridium perfringens (OD)” value (“Inhibition” below) in data set [3] (Example 2, FIG. 2, at 67 ppm) is “not as effective”. In data set [4] (setting [6]), the “Clostridium perfringens counts in jejunum” value turned out to be 2.122. In addition, the “Clostridium perfringens counts in jejunum” value in data set [4] (Non-challenged broilers) stood at 1.418. Further, in data set [4] (setting [7]), the “Clostridium perfringens counts in jejunum” value is reported as 1.770.

In data set [1], `CCCCCCCCCCCC(=O)OCC` [ethyl dodecanoate] displayed a Diarrhoea score of 42.41 b. Also, the “Effect on diarrhoea (in words)” value in data set [1] (versus control) is on record as “significantly reduce diarrhoea”. Also, the Feed conversion ratio in data set [2] is listed as 1.626. In data set [2], this molecule came in with a Feed intake of 106.5 g/day. Further, in data set [2], the Mortality was determined as 4.621%. The molecule also registered a Weight gain in data set [2] of 65.5 g/day. The “Inhibition” value is reported as “complete inhibition” in data set [3] (setting [8]) and “complete inhibition” in data set [3] (Example 2, FIG. 2, lowest inclusion level of treatment). Also, the “Clostridium perfringens counts in jejunum” value in data set [4] (setting [6]) was 0.977; in data set [4] (Non-challenged broilers), 1.048; in data set [4] (setting [7]) it was 1.013. Also, the “Effect on Clostridium counts in jejunum (in words)” value in data set [4] (broilers, versus dodecanoic acid) is “overall significant reduction”. Also, the “Level recovered in the jejunum” value in data set [5] is “higher than the free fatty acid”.

As to `CCCCCCCC(=O)OC` [methyl octanoate], the “Inhibition” value in data set [3] (setting [8]) is given as “nearly the same results”.

The values above are taken from US9861117B2 (priority 2009, dated 2018).
